Experimental data: the NIST ThermoML archive (doi:10.1021/je060339m)

Settings: Liquid

CCCCOC(C)=O [butyl ethanoate]
Settings	mass density [kg/m3]
298.15 K, 100 kPa	875.7
298.15 K, 1000 kPa	876.3
298.15 K, 2000 kPa	877.2
298.15 K, 3000 kPa	878
298.15 K, 3100 kPa	878.1
298.15 K, 5000 kPa	879.9
298.15 K, 10000 kPa	883.8
298.15 K, 15000 kPa	887.6
298.15 K, 20000 kPa	891.3
298.15 K, 25000 kPa	894.9
298.15 K, 30000 kPa	899.1
298.15 K, 35000 kPa	903.7
303.15 K, 100 kPa	870.4
303.15 K, 1000 kPa	871.1
303.15 K, 2000 kPa	872
303.15 K, 3000 kPa	872.9
303.15 K, 3100 kPa	873
303.15 K, 5000 kPa	874.7
303.15 K, 10000 kPa	878.8
303.15 K, 15000 kPa	882.8
303.15 K, 20000 kPa	886.5
303.15 K, 25000 kPa	890.2
303.15 K, 30000 kPa	894.4
303.15 K, 35000 kPa	899.1
308.15 K, 100 kPa	865.1
308.15 K, 1000 kPa	865.9
308.15 K, 2000 kPa	866.9
308.15 K, 3000 kPa	867.8
308.15 K, 3100 kPa	867.8
308.15 K, 5000 kPa	869.6
308.15 K, 10000 kPa	873.9
308.15 K, 15000 kPa	878
308.15 K, 20000 kPa	881.9
308.15 K, 25000 kPa	885.6
308.15 K, 30000 kPa	890
308.15 K, 35000 kPa	894.8
313.15 K, 100 kPa	859.9
313.15 K, 1000 kPa	860.8
313.15 K, 2000 kPa	861.7
313.15 K, 3000 kPa	862.7
313.15 K, 3100 kPa	862.7
313.15 K, 5000 kPa	864.6
313.15 K, 10000 kPa	869
313.15 K, 15000 kPa	873.2
313.15 K, 20000 kPa	877.2
313.15 K, 25000 kPa	881
313.15 K, 30000 kPa	885.6
313.15 K, 35000 kPa	890.5
318.15 K, 100 kPa	854.9
318.15 K, 1000 kPa	855.7
318.15 K, 2000 kPa	856.7
318.15 K, 3000 kPa	857.8
318.15 K, 3100 kPa	857.9
318.15 K, 5000 kPa	859.6
318.15 K, 10000 kPa	864.2
318.15 K, 15000 kPa	868.5
318.15 K, 20000 kPa	872.6
318.15 K, 25000 kPa	876.5
318.15 K, 30000 kPa	881.3
318.15 K, 35000 kPa	886.3
323.15 K, 100 kPa	849.7
323.15 K, 1000 kPa	851
323.15 K, 2000 kPa	852
323.15 K, 3000 kPa	853
323.15 K, 3100 kPa	853.1
323.15 K, 5000 kPa	854.6
323.15 K, 10000 kPa	859.4
323.15 K, 15000 kPa	863.9
323.15 K, 20000 kPa	868.1
323.15 K, 25000 kPa	872.3
323.15 K, 30000 kPa	877.3
323.15 K, 35000 kPa	882.4
328.15 K, 100 kPa	844.6
328.15 K, 1000 kPa	845.7
328.15 K, 2000 kPa	846.8
328.15 K, 3000 kPa	847.9
328.15 K, 3100 kPa	848
328.15 K, 5000 kPa	849.7
328.15 K, 10000 kPa	854.6
328.15 K, 15000 kPa	859.3
328.15 K, 20000 kPa	863.6
328.15 K, 25000 kPa	867.8
328.15 K, 30000 kPa	872.5
328.15 K, 35000 kPa	877.7
333.15 K, 100 kPa	839.6
333.15 K, 1000 kPa	840.7
333.15 K, 2000 kPa	841.8
333.15 K, 3000 kPa	842.9
333.15 K, 3100 kPa	842.9
333.15 K, 5000 kPa	844.9
333.15 K, 10000 kPa	850
333.15 K, 15000 kPa	854.8
333.15 K, 20000 kPa	859.3
333.15 K, 25000 kPa	863.6
333.15 K, 30000 kPa	868.6
333.15 K, 35000 kPa	873.9
338.15 K, 100 kPa	834.5
338.15 K, 1000 kPa	835.6
338.15 K, 2000 kPa	836.7
338.15 K, 3000 kPa	837.9
338.15 K, 3100 kPa	838
338.15 K, 5000 kPa	840.1
338.15 K, 10000 kPa	845.5
338.15 K, 15000 kPa	850.1
338.15 K, 20000 kPa	855
338.15 K, 25000 kPa	859.5
338.15 K, 30000 kPa	864.6
338.15 K, 35000 kPa	870.1
343.15 K, 100 kPa	829.5
343.15 K, 1000 kPa	830.5
343.15 K, 2000 kPa	831.7
343.15 K, 3000 kPa	832.9
343.15 K, 3100 kPa	833
343.15 K, 5000 kPa	835.2
343.15 K, 10000 kPa	840.7
343.15 K, 15000 kPa	845.7
343.15 K, 20000 kPa	850.5
343.15 K, 25000 kPa	855.1
343.15 K, 30000 kPa	860.7
343.15 K, 35000 kPa	866.3
348.15 K, 100 kPa	824.4
348.15 K, 1000 kPa	825.4
348.15 K, 2000 kPa	826.7
348.15 K, 3000 kPa	827.9
348.15 K, 3100 kPa	828
348.15 K, 5000 kPa	830.5
348.15 K, 10000 kPa	836.1
348.15 K, 15000 kPa	841.3
348.15 K, 20000 kPa	846.2
348.15 K, 25000 kPa	850.9
348.15 K, 30000 kPa	856.6
348.15 K, 35000 kPa	862.4
353.15 K, 100 kPa	819.3
353.15 K, 1000 kPa	820.4
353.15 K, 2000 kPa	821.7
353.15 K, 3000 kPa	822.9
353.15 K, 3100 kPa	823
353.15 K, 5000 kPa	825.5
353.15 K, 10000 kPa	831.3
353.15 K, 15000 kPa	836.7
353.15 K, 20000 kPa	841.8
353.15 K, 25000 kPa	846.7
353.15 K, 30000 kPa	852.5
353.15 K, 35000 kPa	858.4
358.15 K, 100 kPa	811.6
358.15 K, 1000 kPa	813.2
358.15 K, 2000 kPa	813.9
358.15 K, 3100 kPa	815.3
358.15 K, 5000 kPa	817.7
358.15 K, 10000 kPa	823.6
358.15 K, 15000 kPa	829.1
358.15 K, 20000 kPa	835.5
363.15 K, 100 kPa	806.1
363.15 K, 1000 kPa	807.5
363.15 K, 2000 kPa	808.8
363.15 K, 3000 kPa	810.1
363.15 K, 3100 kPa	810.3
363.15 K, 5000 kPa	812.8
363.15 K, 10000 kPa	819.2
363.15 K, 15000 kPa	824.9
363.15 K, 20000 kPa	830.4
368.15 K, 100 kPa	800.3
368.15 K, 1000 kPa	802.1
368.15 K, 2000 kPa	803.6
368.15 K, 3000 kPa	804.8
368.15 K, 3100 kPa	805
368.15 K, 5000 kPa	807.7
368.15 K, 10000 kPa	814.3
368.15 K, 15000 kPa	820.3
368.15 K, 20000 kPa	825.9
373.15 K, 100 kPa	795.8
373.15 K, 1000 kPa	797.2
373.15 K, 2000 kPa	798.7
373.15 K, 3000 kPa	800.2
373.15 K, 3100 kPa	800.4
373.15 K, 5000 kPa	803.1
373.15 K, 10000 kPa	809.9
373.15 K, 15000 kPa	815.9
373.15 K, 20000 kPa	821.3
378.15 K, 100 kPa	790.4
378.15 K, 1000 kPa	791.9
378.15 K, 2000 kPa	793.7
378.15 K, 3000 kPa	795.2
378.15 K, 3100 kPa	795.4
378.15 K, 5000 kPa	798
378.15 K, 10000 kPa	804.7
378.15 K, 15000 kPa	810.8
378.15 K, 20000 kPa	817.1
383.15 K, 100 kPa	785.2
383.15 K, 1000 kPa	786.7
383.15 K, 2000 kPa	788.3
383.15 K, 3000 kPa	789.9
383.15 K, 3100 kPa	790
383.15 K, 5000 kPa	792.9
383.15 K, 10000 kPa	800.1
383.15 K, 15000 kPa	806.7
383.15 K, 20000 kPa	812.8
388.15 K, 100 kPa	779.9
388.15 K, 1000 kPa	781.6
388.15 K, 2000 kPa	783.2
388.15 K, 3000 kPa	785.2
388.15 K, 3100 kPa	785.4
388.15 K, 5000 kPa	788.4
388.15 K, 10000 kPa	795.8
388.15 K, 15000 kPa	802.4
388.15 K, 20000 kPa	808.6
393.15 K, 100 kPa	775.2
393.15 K, 1000 kPa	776.4
393.15 K, 2000 kPa	778.1
393.15 K, 3000 kPa	779.5
393.15 K, 3100 kPa	779.7
393.15 K, 5000 kPa	782.8
393.15 K, 10000 kPa	790.6
393.15 K, 15000 kPa	797.7
393.15 K, 20000 kPa	804.2
